One data set deals with Jeko-1 cell. The data set is described as follows: Jeko-1 cell test (IgM-stimulated, phosphorylated AKT readout). Type of data set: cell-based. As to conditions: Homo sapiens, 2 h compound, IgM stimulation 10 min, phospho-AKT. As for the experimental part: (§1) 7) After incubation, readings at 620 and 665 nm on EnVingen were recorded. • <2> TMD-8 cell viability test • 1) Cell Culture

The nature of data set [1]: Plasma protein binding rate, human. Type of data set: in vitro ADME. As to conditions: read-out: PPB % (plasma protein binding rate) (converted).
The next data set concerns the target PI3K beta (Homo sapiens, UniProt P42338). The data set is described as follows: In vitro enzyme activity assay (ADP-Glo lipid kinase), PI3K beta. Background: ADP-Glo first removes unused ATP, then detects ADP through luciferase.
Data set [2] in a line: Plasma protein binding rate, mouse. Type of data set: in vitro ADME. As to conditions: read-out: PPB % (plasma protein binding rate) (converted).
In another data set the target is PI3K alpha (Homo sapiens, UniProt P42336). The data set is described as follows: In vitro enzyme activity assay (ADP-Glo lipid kinase), PI3K alpha.
The next data set deals with PI3K gamma (Homo sapiens, UniProt P48736). Nature of the data set: In vitro enzyme activity assay (ADP-Glo lipid kinase), PI3K gamma. The note with it: PI3Kγ IC50, ATP 25 μM, PIP2:3PS 50 μM, 120 min.
Data set [3] can be described thus: In vivo DMPK study, single dose in female Balb/c mice. As to conditions: for Cmax / half-life / clearance / Vd / bioavailability: mouse, plasma; for Cmax: oral 3 mg/kg, female Balb/c mice; for Oral DNAUC (dose-normalized area under curve) / half-life / clearance / Vd / bioavailability: mice; for half-life / clearance / Vd / bioavailability: female, Balb/c; for half-life: 1 mg/kg, note lists it as an intravenous parameter, read-out: T1/2 (half-life) (converted); for clearance / Vd: intravenous 1 mg/kg; for clearance: read-out: Cl (clearance); for Vd: read-out: Vd (apparent volume of distribution); for bioavailability: oral 3 mg/kg vs intravenous 1 mg/kg, read-out: F % (oral bioavailability). As for the experimental part: Objective: To evaluate the plasma concentration of the compounds and pharmacokinetics after a single dose in female Balb/c mice.
Procedures: 8 healthy adult female Balb/c mice were randomized, 4 for intravenous administration and 4 for oral administration. The compounds were mixed with a proper amount of vehicle for intravenous injection (DMSO/PEG200/water (5:45:50 v/v/v)). The mixture was vortexed and treated with ultrasound to give a 1.0 mg/mL clear solution. The clear solution was filtered through a microporous membrane filter for later use. For the oral group, the vehicle was 0.5% MC/0.2% Tween 80. The compound was mixed with the vehicle, and the mixture was vortexed and ultrasonically treated to give 1.0 mg/mL uniform suspension for later use. The mice were administered intravenously at 1 mg/kg or orally at 3 mg/kg. Whole blood was collected at certain time points, and plasma was separated. The drug concentration was measured by LC-MS/MS, and pharmacokinetic parameters were calculated using
Phoenix WinNonlin software (Pharsight, USA).

For another data set, the target named is PI3K delta (Homo sapiens, UniProt O00329). The data set is described as follows: In vitro enzyme activity assay (ADP-Glo lipid kinase), PI3K delta.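 Note: kinase reaction run at 23 °C, then leftover ATP depleted and the ADP formed turned back into ATP, with the luciferin/luciferase signal read as kinase activity.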 The note with it: PI3Kδ IC50, ATP 40 μM, PIP2:3PS 50 μM, 120 min.
For data set [4], the system named is human lymphoma TMD-8 subcutaneous xenograft tumors. Nature of the data set: In vivo efficacy study, TMD-8 subcutaneous xenograft in CB-17 SCID mice. Set-up: species or system CB-17 SCID mouse. As for the experimental part:
In Vivo Efficacy Study • Objectives: To evaluate the efficacy of the compounds on human lymphoma TMD-8 subcutaneous xenograft tumors in a CB-17 SCID mouse model. • Procedures: • (1) Cell Culture • Human lymphoma TMD-8 cells (Shanghai Junrui-UFBN1682) were cultivated in an RPMI 1640 medium containing 10% fetal bovine serum, 100 U/mL penicillin and 100 μg/mL streptomycin through monolayer culture in vitro in an incubator at 37° C./5% CO2. The cells were digested with trypsin-EDTA twice a week for passaging as per conventional practice. When the saturation reached 80%-90%, the cells were collected, counted and grafted. • (2) Tumor Cell Grafting
0.2 mL (1×10^7 cells) of TMD-8 cells (along with matrigel in a volume ratio of 1:1) was subcutaneously grafted on the right back of each mouse, and the mice were randomized when the mean tumor volume was 99 mm^3. • (3) Preparation of Test Compound
Vehicle group: 0.5% MC/0.2% Tween 80/99.3% water.
Test compound group: A certain amount of the compound was dissolved in a corresponding volume of vehicle in a brown flask. The mixture was vortexed to give a uniform suspension or clear solution.
The experimental indices were to investigate whether tumor growth was inhibited or delayed or the tumor was cured. Tumor diameters were measured twice weekly using a vernier caliper. The tumor volume was calculated according to the following formula: V=0.5a x b^2, where a and b represent the long diameter and short diameter of the tumor, respectively.
The efficacy of compounds against tumor was evaluated by TGI (%). TGI (%) refers to the rate of tumor growth inhibition.

The subject of a further data set is TMD-8 cell. Nature of the data set: TMD-8 cell viability test (CellTiter-Glo, 72 h). Type of data set: cell-based. The note with it: Homo sapiens, TMD8. As for the experimental part: as §1
Cells were regularly passaged. Cells at logarithmic growth phase were transferred to the plate. • 2) Plating • (1). Cells were stained with trypan blue and viable cells were counted. • (2). Cell concentration was adjusted to 7000 cells/well • (3). 90 μL of cell suspension was added to each well of the plate and cell-free medium was added to blank control wells. • (4). The plate was incubated overnight at 37° C., 5% CO2 and 100% relative humidity in an incubator. • 3) Preparation of Plate Containing Compound Stock
(1). Preparation of plate containing 400× compound stock: Compounds were diluted from the highest concentration gradient to lowest concentration with DMSO. • 4) Preparation of 10× compound working solution and treatment • (1). Preparation of 10× compound working solution: 78 μL of cell culture medium was added to a V-bottom 96-well plate, and 2 μL of compound stock solution was pipetted from the plate containing 400× compound stock into the cell cultures of 96-well plate. 2 μL of DMSO was added to the vehicle control wells and blank control wells. After compounds or DMSO was added, the mixture was well mixed by a pipette. • (2). 10 μL of DMSO-cell culture medium mixture solution was added to the vehicle control wells and blank control wells. The final concentration of DMSO was 0.25%. • (3). The 96-well cell plate was incubated in the incubator for another 72 h. • 5) CellTiter-Glo Luminescent Cell Viability Assay
The following procedure was performed according to the instructions of Promega CellTiter-Glo luminescent cell viability assay kit (Promega-G7573). • (1). CellTiter-Glo buffer was thawed and let stand at room temperature. • (2). The CellTiter-Glo substrate was let stand at room temperature. • (3). The CellTiter-Glo buffer was added to a flask of CellTiter-Glo substrate to dissolve the substrate, thereby preparing a CellTiter-Glo working solution. • (4). The solution was vortexed to completely dissolve the substrate. • (5). The plate was incubated at room temperature for 30 min for equilibration. • (6). 50 μL (equal to half the volume of cell culture medium in each well) of CellTiter-Glo working solution was added to each well. The plate was covered by aluminum foil to avoid light. • (7). The plate was shaken on an orbital shaker for 2 min to induce cell lysis. • (8). The plate was let stand at room temperature for 10 min to stabilize the luminescence signals. • (9). The luminescence signals were detected on 2104 EnVision plate reader.

Setting [5] is: 100 mg/kg(D0-D21) combined with ACP-196 75 mg/kg(D0-D21).
[6] abbreviates: 50 mg/kg(D0-D20) combined with ACP-196 50 mg/kg(D0-D17) + 25 mg/kg(D18-D20).

Sequence of PI3K delta (O00329 whole entry): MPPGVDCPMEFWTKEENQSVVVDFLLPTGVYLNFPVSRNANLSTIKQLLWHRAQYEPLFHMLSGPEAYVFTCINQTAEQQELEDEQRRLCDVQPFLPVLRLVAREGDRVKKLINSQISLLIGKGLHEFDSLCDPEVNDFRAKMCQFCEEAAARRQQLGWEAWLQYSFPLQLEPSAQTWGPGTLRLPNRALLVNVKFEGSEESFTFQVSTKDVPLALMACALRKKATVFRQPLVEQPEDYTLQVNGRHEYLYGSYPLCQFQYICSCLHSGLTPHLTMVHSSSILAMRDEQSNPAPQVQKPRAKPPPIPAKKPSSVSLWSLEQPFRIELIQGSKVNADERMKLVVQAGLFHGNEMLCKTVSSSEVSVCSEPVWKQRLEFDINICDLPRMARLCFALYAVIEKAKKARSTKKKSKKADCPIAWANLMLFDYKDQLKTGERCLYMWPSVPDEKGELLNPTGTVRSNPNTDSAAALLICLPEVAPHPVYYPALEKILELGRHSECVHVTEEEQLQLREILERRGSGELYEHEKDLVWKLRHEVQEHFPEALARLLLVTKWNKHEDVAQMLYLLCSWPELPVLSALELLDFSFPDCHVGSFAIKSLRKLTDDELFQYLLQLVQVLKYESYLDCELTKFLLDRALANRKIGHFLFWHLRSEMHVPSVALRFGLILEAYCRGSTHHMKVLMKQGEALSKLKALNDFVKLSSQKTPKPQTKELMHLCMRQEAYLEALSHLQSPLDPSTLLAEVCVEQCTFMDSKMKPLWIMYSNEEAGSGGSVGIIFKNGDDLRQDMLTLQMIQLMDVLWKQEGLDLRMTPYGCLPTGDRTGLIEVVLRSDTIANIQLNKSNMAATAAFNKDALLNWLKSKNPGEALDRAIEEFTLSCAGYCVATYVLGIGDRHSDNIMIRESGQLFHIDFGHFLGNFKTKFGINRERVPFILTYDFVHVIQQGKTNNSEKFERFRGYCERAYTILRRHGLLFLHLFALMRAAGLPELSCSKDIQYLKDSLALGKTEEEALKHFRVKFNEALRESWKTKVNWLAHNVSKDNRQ
Sequence of PI3K delta (P27986 whole entry partner): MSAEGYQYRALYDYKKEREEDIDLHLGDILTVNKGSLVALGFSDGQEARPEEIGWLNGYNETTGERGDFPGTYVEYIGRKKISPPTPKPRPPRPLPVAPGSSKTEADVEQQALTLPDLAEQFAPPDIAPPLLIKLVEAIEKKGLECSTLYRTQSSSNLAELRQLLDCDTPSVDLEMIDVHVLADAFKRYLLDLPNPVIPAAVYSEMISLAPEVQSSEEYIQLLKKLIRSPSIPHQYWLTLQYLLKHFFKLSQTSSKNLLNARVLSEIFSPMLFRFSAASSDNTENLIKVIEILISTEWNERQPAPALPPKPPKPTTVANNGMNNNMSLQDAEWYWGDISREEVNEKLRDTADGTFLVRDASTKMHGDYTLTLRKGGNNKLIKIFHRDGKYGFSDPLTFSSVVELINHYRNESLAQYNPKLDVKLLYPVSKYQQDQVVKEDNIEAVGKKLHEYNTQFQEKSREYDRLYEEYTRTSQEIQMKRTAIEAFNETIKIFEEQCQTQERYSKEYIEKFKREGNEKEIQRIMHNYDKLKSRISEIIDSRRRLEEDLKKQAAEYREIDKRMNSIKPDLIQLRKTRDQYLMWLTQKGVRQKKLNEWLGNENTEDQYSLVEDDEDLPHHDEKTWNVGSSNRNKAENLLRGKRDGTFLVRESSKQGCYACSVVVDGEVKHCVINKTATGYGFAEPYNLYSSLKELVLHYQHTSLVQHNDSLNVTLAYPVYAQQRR
Sequence of PI3K beta (P42338 whole entry): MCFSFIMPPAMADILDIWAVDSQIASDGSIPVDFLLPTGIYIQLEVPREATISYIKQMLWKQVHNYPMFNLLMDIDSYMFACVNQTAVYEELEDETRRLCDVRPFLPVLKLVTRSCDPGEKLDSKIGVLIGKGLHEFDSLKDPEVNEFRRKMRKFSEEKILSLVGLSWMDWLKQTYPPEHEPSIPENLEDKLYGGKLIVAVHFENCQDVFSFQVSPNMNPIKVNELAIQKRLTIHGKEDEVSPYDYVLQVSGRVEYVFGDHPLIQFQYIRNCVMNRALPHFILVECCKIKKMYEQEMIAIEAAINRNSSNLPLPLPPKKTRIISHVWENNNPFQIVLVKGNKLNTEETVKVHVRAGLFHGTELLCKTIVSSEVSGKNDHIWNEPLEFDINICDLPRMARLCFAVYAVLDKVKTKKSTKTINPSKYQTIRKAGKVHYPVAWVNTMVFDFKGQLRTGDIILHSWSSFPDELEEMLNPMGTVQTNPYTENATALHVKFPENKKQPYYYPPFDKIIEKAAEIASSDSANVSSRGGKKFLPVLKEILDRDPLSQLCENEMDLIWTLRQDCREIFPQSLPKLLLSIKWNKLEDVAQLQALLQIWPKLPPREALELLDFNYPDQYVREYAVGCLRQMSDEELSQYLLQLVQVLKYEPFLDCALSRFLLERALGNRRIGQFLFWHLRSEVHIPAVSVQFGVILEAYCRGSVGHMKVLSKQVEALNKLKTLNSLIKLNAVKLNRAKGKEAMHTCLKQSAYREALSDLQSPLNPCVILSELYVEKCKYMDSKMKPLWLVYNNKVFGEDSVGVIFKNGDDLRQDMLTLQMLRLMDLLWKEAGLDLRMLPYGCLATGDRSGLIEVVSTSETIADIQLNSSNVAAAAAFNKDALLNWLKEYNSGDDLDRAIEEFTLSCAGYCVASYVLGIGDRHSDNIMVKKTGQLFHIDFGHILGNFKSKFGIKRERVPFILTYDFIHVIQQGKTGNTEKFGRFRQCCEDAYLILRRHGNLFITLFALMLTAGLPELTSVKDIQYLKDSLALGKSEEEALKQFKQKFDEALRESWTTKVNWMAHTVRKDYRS
Sequence of PI3K beta (P27986 whole entry partner): as the sequence (P27986 whole entry partner) above
Sequence of PI3K gamma (P48736 whole entry): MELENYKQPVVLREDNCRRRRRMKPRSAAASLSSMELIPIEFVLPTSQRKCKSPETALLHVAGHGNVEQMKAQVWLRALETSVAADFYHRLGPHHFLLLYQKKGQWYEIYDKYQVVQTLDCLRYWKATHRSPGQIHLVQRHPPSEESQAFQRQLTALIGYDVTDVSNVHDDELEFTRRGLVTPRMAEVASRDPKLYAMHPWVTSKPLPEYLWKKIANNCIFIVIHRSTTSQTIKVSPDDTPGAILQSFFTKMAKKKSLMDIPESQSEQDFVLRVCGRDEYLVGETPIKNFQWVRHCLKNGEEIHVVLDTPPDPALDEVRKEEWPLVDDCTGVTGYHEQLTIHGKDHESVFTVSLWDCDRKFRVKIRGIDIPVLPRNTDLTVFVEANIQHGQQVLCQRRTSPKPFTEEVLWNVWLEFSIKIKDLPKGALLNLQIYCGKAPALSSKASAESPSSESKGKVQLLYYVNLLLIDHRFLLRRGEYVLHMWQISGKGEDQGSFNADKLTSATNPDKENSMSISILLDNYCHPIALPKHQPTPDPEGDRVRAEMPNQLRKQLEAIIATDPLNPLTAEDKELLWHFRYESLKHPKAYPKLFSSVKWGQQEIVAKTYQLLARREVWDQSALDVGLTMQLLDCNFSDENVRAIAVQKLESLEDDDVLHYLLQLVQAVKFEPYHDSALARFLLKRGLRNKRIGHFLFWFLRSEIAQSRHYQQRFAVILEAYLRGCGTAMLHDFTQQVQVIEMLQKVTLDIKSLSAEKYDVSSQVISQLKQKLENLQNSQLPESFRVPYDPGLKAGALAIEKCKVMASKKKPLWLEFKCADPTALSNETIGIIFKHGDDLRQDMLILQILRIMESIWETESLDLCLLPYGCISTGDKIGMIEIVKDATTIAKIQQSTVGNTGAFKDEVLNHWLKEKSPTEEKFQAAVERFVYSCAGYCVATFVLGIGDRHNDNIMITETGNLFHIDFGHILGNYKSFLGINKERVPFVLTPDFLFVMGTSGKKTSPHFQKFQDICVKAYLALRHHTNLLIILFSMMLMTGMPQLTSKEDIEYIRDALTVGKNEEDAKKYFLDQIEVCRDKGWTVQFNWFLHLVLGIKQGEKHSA
Sequence of PI3K alpha (P42336 whole entry): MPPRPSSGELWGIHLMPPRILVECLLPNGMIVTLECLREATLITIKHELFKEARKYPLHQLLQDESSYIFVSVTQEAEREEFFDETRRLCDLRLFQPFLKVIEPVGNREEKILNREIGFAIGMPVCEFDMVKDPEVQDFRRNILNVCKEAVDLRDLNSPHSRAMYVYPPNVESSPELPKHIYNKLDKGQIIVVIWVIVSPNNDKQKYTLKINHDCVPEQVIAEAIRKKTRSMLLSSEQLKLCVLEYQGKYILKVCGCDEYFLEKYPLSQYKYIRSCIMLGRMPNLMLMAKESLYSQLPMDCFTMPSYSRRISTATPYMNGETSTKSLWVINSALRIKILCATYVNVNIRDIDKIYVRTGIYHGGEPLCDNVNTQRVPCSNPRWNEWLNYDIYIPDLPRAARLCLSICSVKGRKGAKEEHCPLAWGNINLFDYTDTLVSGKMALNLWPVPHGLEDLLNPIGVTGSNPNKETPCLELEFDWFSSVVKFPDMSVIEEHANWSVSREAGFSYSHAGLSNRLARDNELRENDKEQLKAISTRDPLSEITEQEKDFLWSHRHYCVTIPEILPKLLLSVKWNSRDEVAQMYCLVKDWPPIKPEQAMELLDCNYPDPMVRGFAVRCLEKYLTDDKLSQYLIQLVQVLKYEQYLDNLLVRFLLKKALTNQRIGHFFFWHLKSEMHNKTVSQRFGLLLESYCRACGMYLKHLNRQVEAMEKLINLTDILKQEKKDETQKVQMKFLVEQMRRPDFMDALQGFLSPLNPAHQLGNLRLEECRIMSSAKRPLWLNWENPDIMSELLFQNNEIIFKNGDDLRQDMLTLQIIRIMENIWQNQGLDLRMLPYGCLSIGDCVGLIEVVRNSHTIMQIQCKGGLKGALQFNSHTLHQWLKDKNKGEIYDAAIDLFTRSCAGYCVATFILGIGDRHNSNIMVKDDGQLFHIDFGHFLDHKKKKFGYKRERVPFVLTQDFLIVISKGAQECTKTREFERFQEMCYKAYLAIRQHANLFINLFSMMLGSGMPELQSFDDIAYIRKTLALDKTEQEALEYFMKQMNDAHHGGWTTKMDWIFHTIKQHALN
Sequence of PI3K alpha (P27986 whole entry partner): as the sequence (P27986 whole entry partner) above
Method for PI3K alpha: (§2) An appropriate substrate and ATP were incubated at a suitable condition for lipid kinase reaction, followed by a two-step detection of kinase activity using an ADP-Glo™ kit. Step I: The kinase reaction was terminated and residual ATP was completely removed, leaving ADP only; Step II: A kinase assay reagent was added to convert ADP to ATP by a luciferin/luciferase reaction. Finally, a fluorescence output value was detected and converted into kinase activity.
(§3) • 2) Kit: ADP-Glo™ lipid kinase and PIP2:3PS kit (Promega #V1792)
(§4) The mixture was incubated at 23° C. for 20 min • (10) 2 μL of ATP solution was added, and the mixture was centrifuged at 1000 rpm and was shaken to mix well • (11) The plate was covered, shaken for about 30 s, and incubated for 2 h at 23° C. • (12) 5 μL of ADP-Glo reagent containing 10 mM MgCl2 was added • (13) The mixture was centrifuged at 1000 rpm for 10 s, covered and shaken for about 30 s, and incubated at 23° C. for 60 min • (14) 10 μL of kinase assay reagent was added • (15) The mixture was centrifuged at 1000 rpm for 10 s, and incubated at 23° C. for 60 min • (16) Fluorescence values were measured by an Envision system. • 2. […] The mixture was incubated at 37° C./CO2 for 10 min. • 5) The compound was removed by pipette. Lysis buffer was added at 50 μL/well, and the cells wereincubated on a shaker for 30 min. • 6) After the cells were completely lysed, 16 μL of lysate was transferred to a 384-well plate and 4 μL of prepared AC+D2 in the kit was added. (AC: Eu3+-cryptate antibody binds to phosphorylated AKT, while D2 binds to non-phosphorylated AKT) The mixture was incubated at room temperature for 4 h.
Method for PI3K beta: as §2, §3, §4
Method for PI3K delta: as §2, §3
The kit comprises: 1 mM PIP2:3PS, 10× lipid dilution buffer, 1 M magnesium chloride, 10 mM ATP, 10 mM ADP, ADP-Glo reagent, detection buffer and substrate. • 3) Plate: OptiPlate-384, white and transparent (PerkinElmer #6007299) Reagent preparation: • 1) 10x reaction buffer: 500 mM HEPES (4-(2-hydroxyethyl)-1-piperazineethanesulfonic acid), pH 7.5, 500 mM NaCl, 9 mM MgCl2; BSA: 10% stock solution, prepared in-house • 2) Condition for final test system: 1× reaction system: 50 mM HEPES, 50 mM NaCl, 3 mM MgCl2, 0.01% BSA (prepared on the day of experiment), 1% DMSO (v/v) +/−compound • 3) Reaction system: 3 μL of enzyme and substrate mixture (1:1) +2 μL of ATP/MgCl2 mixture +5 μL of ADP-Glo reagent +10 μL detection reagent.
The specific experimental procedures are as follows: • 1) Dilution: 50 nL of 100× compound/DMSO solution were transferred into a test plate using Echo • For PI3Kα, the compound was serially diluted by three fold from the highest concentration 0.111 mM to the 10th concentration. • For PI3Kβ/PI3Kδ/PI3Kγ, the compound was serially diluted by three fold from the highest concentration of 1.11 mM to the 10th concentration. • 2) Kinase reaction: • (1) The target compounds were prepared. 50 nL of 100× compound solution or DMSO was added to the corresponding plate • (2) A 3.33 × reaction buffer was prepared • (3) A 3.33× PIP2:3PS solution were prepared; the PIP2:3PS solution should be thawed by vortex for at least 1 min before use • (4) An ATP solution containing 5.25 mM MgCl2 was prepared • (5) 3.33× PI3Kα/PI3Kβ/PI3Kδ/PI3Kγ solutions were prepared • (6) The lipid kinase solution and PIP2:3PS solution were mixed at a volume ratio of 1:1 • (7) The 3.33 × lipid kinase buffer and PIP2:3PS solution were mixed at a volume ratio of 1:1 • (8) 3 μL of the mixed solution of reaction buffer and PIP2:3PS was added to Columns 1 and 2 of the plate • (9) 3 μL of the mixed solution of the enzyme and PIP2:3PS was added to the wells of the plate other than Columns 1 and 2, and was centrifuged for 10 s (1000 rpm). The mixture was incubated at 23° C. for 20 min • (10) 2 μL of ATP solution was added, and the mixture was centrifuged at 1000 rpm and was shaken to mix well • (11) The plate was covered, shaken for about 30 s, and incubated for 2 h at 23° C. • (12) 5 μL of ADP-Glo reagent containing 10 mM MgCl2 was added • (13) The mixture was centrifuged at 1000 rpm for 10 s, covered and shaken for about 30 s, and incubated at 23° C. for 60 min • (14) 10 μL of kinase assay reagent was added • (15) The mixture was centrifuged at 1000 rpm for 10 s, and incubated at 23° C. for 60 min • (16) Fluorescence values were measured by an Envision system. • 2.
Method for PI3K gamma: as §2, §3, §4

With `COc1ccc(-c2nn(C(C)c3nc4ccc(F)cn4c(=O)c3-c3cccc(F)c3)c3ncnc(N)c23)cn1` (single isomer, unassigned) [WX012], the IC50 with Jeko-1 cell was 580 nM; on PI3K beta, over 10000 nM; against PI3K alpha, over 10000 nM; against PI3K gamma, 2050 nM; on PI3K delta, 54.3 nM. For the same molecule, the fraction unbound in [1] is 0.256; in data set [2] it was 0.192. In [3], this molecule showed a Cmax of 3180 nM. In data set [3], the “Oral DNAUC (dose-normalized area under curve)” value is given as 2820 nM · h/mpk.

For the molecule `COc1ncc(-c2nn(C(C)c3nc4ccc(F)cn4c(=O)c3-c3cccc(F)c3)c3ncnc(N)c23)s1` (single isomer, unassigned) [WX007], the IC50 with Jeko-1 cell was 125 nM. Besides, in [1], the fraction unbound is 0.217. For the same molecule, in data set [2], the fraction unbound was 0.086. For the same molecule, the TGI in data set [4] (setting [5]) is on record as 103.16%. This molecule displayed an IC50 on PI3K gamma of 188 nM. The midpoint of inhibition with TMD-8 cell, the IC50, lay at 589 nM. In data set [3], the half-life was 0.644 h, the clearance came out at 36.7 mL/min/kg, the Vd came out at 1.75 L/kg and the bioavailability amounted to 84.7%. In [3], the Cmax is 1590 nM and the “Oral DNAUC (dose-normalized area under curve)” value stood at 674.0 nM · h/mpk. Besides, the IC50 at PI3K delta came to 1.88 nM.

On to `CC(C)Oc1ccc(-c2nn(C(C)c3nc4ccc(F)cn4c(=O)c3-c3cccc(F)c3)c3ncnc(N)c23)cn1` (single isomer, unassigned) [WX004], for which the IC50 in the data set on Jeko-1 cell was 1320 nM; against PI3K beta, over 10000 nM; against PI3K alpha, over 10000 nM; at PI3K gamma, 1220 nM; at PI3K delta, 257 nM.

Consider `COCc1ncc(-c2nn(C(C)c3nc4ccc(F)cn4c(=O)c3-c3cccc(F)c3)c3ncnc(N)c23)s1` (stereo not drawn) [WX026], for which, in data set [1], the fraction unbound is 0.263. Also, in data set [2], the fraction unbound is 0.146. This molecule also had an IC50 against PI3K gamma of 2220 nM. Moreover, in data set [3], the half-life is 1.99 h, the Cmax was found to be 5260 nM and the “Oral DNAUC (dose-normalized area under curve)” value was 2406 nM · h/mpk. Also, 33.5 nM corresponded to half-maximal inhibition at PI3K delta (IC50).

Take `COc1ncc(-c2nn(C(C)c3nc4ccc(F)cn4c(=O)c3-c3cccc(F)c3)c3ncnc(N)c23)cc1C#N` (single isomer, unassigned) [WX005]: the IC50 with Jeko-1 cell is 828 nM; on PI3K beta, over 10000 nM; on PI3K alpha, over 10000 nM; at PI3K gamma it was 8060 nM; against PI3K delta, 120 nM.

Regarding `COc1ncc(-c2nn(C(C)c3nc4ccc(F)cn4c(=O)c3-c3cccc(F)c3)c3ncnc(N)c23)cn1` (stereo not drawn) [WX042], the TGI in data set [4] (setting [6]) is on record as 108.01%. This molecule also had an IC50 on PI3K gamma of 3590 nM. In the data set with TMD-8 cell, half-maximal inhibition (IC50) was put at 2790 nM. In data set [3], the half-life is 3.15 h, the clearance is 5.54 mL/min/kg, the Vd was determined as 1.43 L/kg and the bioavailability is 49.3%. For the same molecule, in [3], the Cmax turned out to be 2620 nM and the “Oral DNAUC (dose-normalized area under curve)” value is 2583 nM · h/mpk. On PI3K delta, this molecule gave an IC50 of 46.9 nM.

`CC(C)Oc1ccc(-c2nn([C@@H](C)c3oc4ccc(F)cc4c(=O)c3-c3cccc(F)c3)c3ncnc(N)c23)cc1F` [TGR-1202, reference compound] gave an IC50 in the data set on Jeko-1 cell of 478 nM. Moreover, the fraction unbound in data set [1] is 0.003. The same molecule returned an IC50 against PI3K beta of over 10000 nM. Also, the fraction unbound in data set [2] was 0.003. Also, the IC50 at PI3K alpha was over 10000 nM. Also, the TGI in [4] (setting [5]) is given as 103.25%. On PI3K gamma, this molecule displayed an IC50 of 818 nM. Further, in the data set on TMD-8 cell, half-maximal inhibition (IC50) required 4050 nM. In addition, in data set [3], the half-life is 5.66 h, the clearance is 8.54 mL/min/kg, the Vd turned out to be 4.2 L/kg and the bioavailability worked out at 91.7%. Moreover, in data set [3], the highest level (Cmax) was 651 nM and the “Oral DNAUC (dose-normalized area under curve)” value was found to be 3043 nM · h/mpk.

Take `CC(C)Oc1ccc(-c2nn(C(C)c3nc4ccc(F)cn4c(=O)c3-c3cccc(F)c3)c3ncnc(N)c23)cc1F` (single isomer, unassigned) [WX001]: the 50% inhibitory concentration (IC50) in the data set on Jeko-1 cell is 614 nM; on PI3K beta it was over 10000 nM; at PI3K alpha it was over 10000 nM; against PI3K gamma it was 472 nM; with TMD-8 cell, 2970 nM; on PI3K delta it was 397 nM. Further, the values for the fraction unbound in data set [1] and in data set [2] were 0.034 and 0.023, respectively. The TGI in data set [4] (25 mg/kg(D0-D20) combined with ACP-196 50 mg/kg(D0-D17) + 25 mg/kg(D18-D20)) came to 108.10%; in data set [4] (setting [6]), 108.14%; in data set [4] (75 mg/kg(D0-D20) combined with ACP-196 50 mg/kg(D0-D17) + 25 mg/kg(D18-D20)) it was 108.10%; in data set [4] (setting [5]), 103.95%. Moreover, the half-life in data set [3] was 4.8 h. For the same molecule, the clearance in data set [3] is 4.44 mL/min/kg. Also, the Vd in data set [3] stood at 2.02 L/kg. In addition, the bioavailability in data set [3] worked out at 101%. Moreover, the Cmax in data set [3] was determined as 1610 nM. In addition, the “Oral DNAUC (dose-normalized area under curve)” value in data set [3] is 7179 nM · h/mpk.

For orientation: IC50 means the concentration that inhibits the measured activity by half. A high value points to weaker potency in that assay. The term Cmax denotes the maximum level reached in the sampled fluid or tissue. Usually clearance stands for the volume of plasma or blood freed of the substance per unit of time.

These data come from US20220112217A1, “PYRAZOLOPYRIMIDINE DERIVATIVE AND USE THEREOF AS PI3K INHIBITOR” (MEDSHINE DISCOVERY INC., priority 2018, published 2022).
